Measured values published in patent US20030086974A1, “Odour regulation in hygiene products” (priority 2001, published 2003).

Columns and labels:
Type in all cases: physicochemical
[1] = Adsorption of phenolphthalein by oxidised β-cyclodextrin (absorption at 553 nm); settings: sample 1 mg/ml in sodium carbonate buffer pH 10.3 mixed with 10 μl 0.1% phenolphthalein in ethanol
Procedure: Five grams of β-cyclodextrin (CAVAMAX® W7 from Wacker-CHEMIE GMBH) on dry weight basis was dissolved in 300 ml of demi-water, and 22.4 ml of a 0.032 M 4-acetamido TEMPO solution was; added. Subsequently, β-cyclodextrin was oxidised by addition of sodium hypochlorite. Batches were prepared with theoretically one, two and three anhydroglucose units fully oxidised per cyclodextrin molecule (average) per β-cyclodextrin molecule using sodium hypochlorite. The pH was kept constant during reaction by addition of 0.5 M NaOH, controlled by a pH stat (Metrohm). After completion of the oxidation, the aldehyde groups were reduced with sodium borohydride. The respective batches were concentrated in a rotary evaporator, and subsequently freeze-dried. The freeze-dried material was washed in a methanol/water mixture to remove salts and 4-acetamido-TEMPO. The batches were finally washed with acetone and dried in an oven at 50° C. The inclusion properties were investigated (see Table 1).

[2] = Toluene inclusion (precipitation of the cyclodextrin-toluene complex); settings: 100 mg of sample dissolved in water, 20 μl toluene added to notice precipitation
Procedure: From 4.7 g β-cyclodextrin (dry), an oxidised cyclodextrin was prepared as described in Example 1, using 10 ml 2.0 M NaOCl solution, 150 mg NaBr and 80 mg 4-acetamido-TEMPO. The ratio acid/aldehyde was derived from the sodium hydroxide consumption and also experimentally determined. According to calculation, 6.3 mmol acid and 6.9 mmol aldehyde were produced. […] The reaction mixture was concentrated in vacuum to about 120 ml. […] Precipitation of the oxidised cyclodextrin-toluene complex started slowly i.e. after 10 minutes it was visible that a precipitate was formed. After 5 hours the process of precipitation formation seemed to be finished.
The same experiment was repeated with an acidified solution (pH 3). Here precipitation started immediately after mixing. The process was complete within one hour.
From 4.7 g β-cyclodextrin (dry) an oxidised cyclodextrin was prepared as described in Example 1, using 5 ml 2.0 M NaOCl solution, 150 mg NaBr and 4-acetamido-TEMPO. The ratio acid/aldehyde was derived from the sodium hydroxide consumption and also experimentally determined. According to calculation 2.2 mmol acid and 5.7 mmol aldehyde were produced. […] The reaction mixture was concentrated in vacuum to about 120 ml. […] Precipitation of the oxidised cyclodextrin-toluene complex started immediately and after one hour the process of precipitation formation appeared to be finished.

[3] = Menthone inclusion (precipitation of the complex); settings: 100 mg of sample dissolved in water, 20 μl menthone added to notice precipitation

Phenolphthalein Absorption (at γ = 553 nm) ([1]; Table 1): 0.025
Phenolphthalein Absorption (at γ = 553 nm) ([1]; Table 2, solution without cyclodextrin Abs. = 0.65): 0.025
Toluene inclusion ([2]; Table 1): Yes
Toluene inclusion ([2]; Table 2): Yes
Menthone inclusion ([3]; Table 1): Yes
Menthone inclusion ([3]; Table 2): Yes
Structure (SMILES): OC[C@H]1O[C@@H]2O[C@H]3[C@H](O)[C@@H](O)[C@@H](O[C@H]4[C@H](O)[C@@H](O)[C@@H](O[C@H]5[C@H](O)[C@@H](O)[C@@H](O[C@H]6[C@H](O)[C@@H](O)[C@@H](O[C@H]7[C@H](O)[C@@H](O)[C@@H](O[C@H]8[C@H](O)[C@@H](O)[C@@H](O[C@H]1[C@H](O)[C@H]2O)O[C@@H]8CO)O[C@@H]7CO)O[C@@H]6CO)O[C@@H]5CO)O[C@@H]4CO)O[C@@H]3CO [Example 0, β-cyclodextrin]
